Calls of active or inactive are those of the source. No cut-off for these calls is given here.
Tests used:
[1] = tested on: Aspergillus fumigatus; assay: Antifungal activity against Aspergillus fumigatus ATCC 13073 by broth dilution method; assay type: functional
[2] = tested on: Pichia kudriavzevii; assay: Antibiofilm activity against Pichia kudriavzevii ATCC 34135 assessed as disruption of preformed biofilm after 24 hrs by concanavalin A-FITC-staining based fluorescence microscopic analysis; assay type: functional
[3] = Hemolytic effect in sheep RBC assessed as release of hemoglobin at 25 ug/ml after 1 hr; assay type: ADME, cell-based, Ovis aries, Erythrocyte; details: sheep red blood cells, read-out: Activity
[4] = tested on: Candida albicans; assay: Antibiofilm activity against Candida albicans ATCC 10231 assessed as disruption of preformed biofilm after 24 hrs by concanavalin A-FITC-staining based fluorescence microscopic analysis; assay type: functional
[5] = tested on: Microsporum canis; assay: Antifungal activity against Microsporum canis DMT2 by broth dilution method; assay type: functional
[6] = tested on: Trichophyton mentagrophytes; assay: Antifungal activity against Trichophyton mentagrophytes DMT4 by broth dilution method; assay type: functional
[7] = tested on: Candida albicans; assay: Antifungal activity against Candida albicans ATCC 10231 by broth dilution method; assay type: functional
[8] = tested on: MRC5; assay: Cytotoxicity against human MRC5 cells after 48 hrs by MTT assay; assay type: cell-based; details: MRC5, 48 h
[9] = tested on: Candida parapsilosis; assay: Antifungal activity against Candida parapsilosis C27 by broth dilution method; assay type: functional; details: Lodderomyces parapsilosis
[10] = tested on: Candida albicans; assay: Induction of DNA intercalation with Candida albicans genomic DNA at 25 ug/ml after 12 hrs by ethidium bromide staining based gel electrophoresis method
[11] = tested on: Candida albicans; assay: Antifungal activity against Candida albicans CA5 by broth dilution method; assay type: functional
[12] = tested on: Candida albicans; assay: Antibiofilm activity against Candida albicans assessed as inhibition of Spider medium-induced hyphae formation at sub-MIC after 24 hrs by propidium iodide and FITC-conjugated concanavaline A staining based fluorescence microscopy; assay type: functional, organism-based
[13] = tested on: Candida parapsilosis; assay: Antibiofilm activity against Candida parapsilosis C27 assessed as disruption of preformed biofilm after 24 hrs by concanavalin A-FITC-staining based fluorescence microscopic analysis; assay type: functional
[14] = tested on: Pichia kudriavzevii; assay: Antifungal activity against Candida krusei ATCC 34135 by broth dilution method; assay type: functional
[15] = tested on: Fusarium oxysporum; assay: Antifungal activity against Fusarium oxysporum AB18 by broth dilution method; assay type: functional
[16] = Hemolytic effect in sheep RBC assessed as release of hemoglobin at cytotoxic IC50 after 1 hr; assay type: cell-based, Ovis aries, Erythrocyte; details: sheep red blood cells, read-out: Activity
[17] = Induction of membrane damage in PC/PS/E liposome assessed as calcein release at MIC after 30 mins by fluorescence-based liposome leakage assay; assay type: functional
[18] = Selectivity index, ratio of IC50 for human MRC5 cell to MIC for Candida albicans CA5
[19] = Hemolytic effect in sheep RBC assessed as release of hemoglobin at MIC after 1 hr; assay type: ADME, cell-based, Ovis aries, Erythrocyte; details: sheep red blood cells, read-out: Activity

Row | MIC [1] [µg/mL] | MIC [5] [µg/mL] | MIC [6] [µg/mL] | MIC [7] [µg/mL] | MIC [9] [µg/mL] | Activity [10] | MIC [11] [µg/mL] | MIC [14] [µg/mL] | MIC [15] [µg/mL] | SMILES | MBEC [2] [µg/mL] | hemolysis at 1 h, 25 ug/ml [3] [%] | MBEC [4] [µg/mL] | IC50 [8] [µg/mL] | Activity [12] | MBEC [13] [µg/mL] | hemolysis at 1 h [16] [%] | Activity [17] [%] | Selectivity Index [18] | hemolysis at 1 h [19] [%]
1 | 250 | 125 | 25 | 15.6 | > 250 | Active | 125 | > 250 | > 250 | Cl.Cl.N=C(N)N/N=C/c1ccc(-c2ccncc2)s1 | >1000 | 20 | 1000 | 25 | Active | >1000 |  |  |  | 
2 | 25 | 0.25 | 0.25 | 3.9 | 50 | Active | 0.25 | 50 | > 250 | Cl.Cl.N=C(N)N/N=C/c1ccc(-c2ccc(-c3ccc(/C=N/NC(=N)N)cc3)s2)cc1 | 1000 |  | 250 | 5 | inactive | 1000 | ≤ 10 | 7 | 20 | ≤ 10
